In patent US7884067B2, “Peptides derived from cadherin and methods of use thereof” (Mount Sinai School of Medicine of New York University, priority 2001, dated 2011):

B1: N-Cad/CTF2: chicken cytoplasmic domain of N-cadherin (N-Cad/CTF2) inserted into vector pECE, expressed in L cells (protein)
chain: KRRDKERQAKQLLIDPEDDVRDNILKYDEEGGGEEDQDYDLSQLQQPDTVEPDAIKPVGIRRLDERPIHAEPQYPVRSAAPHPGDIGDFINEGLKAADNDPTAPPYDSLLVFDYEGSGSTAGSLSSLNSSSSGGEQDYDYLNDWGPRFKKLADMYGGGDD

Experiments:
E-cadherin = E-cadherin processing in E-cadherin-transfected PS1+/+ fibroblasts (Western blot, C36); format: cell-based, mouse; conditions: L-685,458 0.5 μM, 6 hours, compared to non-treated controls
Description: Cell Cultures and transfections. Cells were grown in Dulbecco's Modified Eagle Medium (DMEM) plus 10% fetal bovine serum, penicillin and streptomycin in 5% CO2 at 37° C. Fibroblast cell lines derived either from wild-type (WT) (PS1+/+) or PS1 knock-out (PS1−/−) mice were stably transfected with human E-cadherin as described by Baki et al., (2001). A431 cells were from American Type Culture Collection. Stable transfectants of PS1 cDNA in HEK293 cells were prepared as described by Georgakopoulos et al., (1999). A431D cells stably transfected with wild-type or GGG759-761AAA mutant E-cadherin were provided by Dr. A. B. Reynolds.
Immunoprecipitations (IPs), immunoblotting, immunofluorescence and confocal microscopy. For WB analysis of cell extracts, cells were washed with PBS and then solubilized in RIPA buffer. For IPs cells were solubilized in Hepes buffer (25 mM Hepes [pH 7.4], 150 mM NaCl, 1× Complete protease inhibitor cocktail, Roche) containing 1% digitonin (IPs with I-R222 and PI-R222 antibodies) or 1% Triton X-100 (IPs with β-catenin and desmoglein antibodies). Following centrifugation at 17,000×g for 10 min, supernatants (1 mg protein) were pre-cleared with protein A- or protein G-agarose (Pierce) for 2 hours. […] IPs were washed with Hepes buffer containing either 1% digitonin or 1% Triton X-100 and analyzed by SDS-PAGE. […]

A431 cells = test: Laser scanning confocal microscopy of ionomycin-induced cell-cell dissociation; format: cell-based, human; conditions: 30 minutes pre-incubation with L-685,458, then ionomycin 45 minutes
Description: Immunoprecipitations (IPs), immunoblotting, immunofluorescence and confocal microscopy. For WB analysis of cell extracts, cells were washed with PBS and then solubilized in RIPA buffer. For IPs cells were solubilized in Hepes buffer (25 mM Hepes [pH 7.4], 150 mM NaCl, 1× Complete protease inhibitor cocktail, Roche) containing 1% digitonin (IPs with I-R222 and PI-R222 antibodies) or 1% Triton X-100 (IPs with β-catenin and desmoglein antibodies). Following centrifugation at 17,000×g for 10 min, supernatants (1 mg protein) were pre-cleared with protein A- or protein G-agarose (Pierce) for 2 hours. Supernatants were then incubated with antibodies overnight at 4° C. and treated for 2 hours with protein A-agarose (polyclonal antibodies) or with protein G-agarose (monoclonal antibodies). IPs were washed with Hepes buffer containing either 1% digitonin or 1% Triton X-100 and analyzed by SDS-PAGE. Immunofluorescence and confocal microscopy was performed as described by Georgakopoulos et al., (1999). Briefly, cells were plated on 22×22 mm collagen-coated glass coverslips, fixed in cold methanol for 10 min at −20° C. Following washing in TBS (25 mM Tris-HCl [pH 7.4], 150 mM NaCl), cells were treated with 10% goat serum in SuperBlock (Pierce) for 1 hour, incubated overnight with primary antibody (1:100), washed in TBS and then were incubated with species specific Alexa Fluor™ secondary antibody conjugates (Molecular Probes). Cells were washed with TBS, mounted with Prolong antifade kit (Molecular Probes), and photographed on a Leica confocal laser scanning microscope.
The PS1/γ-secretase role in the disassembly of CAJ was further examined using laser scanning confocal microscopy (LSCM). A431 cells were pre-incubated for 30 minutes in the absence or presence of L-685,458 and then treated for 45 minutes with ionomycin. Following the ionomycin-induced cell-cell dissociation, the distribution of PS1, E-cadherin, β-catenin and α-catenin was analyzed by LSCM using the constant detector setting. […]

CBP = molecular target: T1, CBP (Mus musculus, UniProt P45481); test: Immunofluorescence staining of pN-Cad/CTF2-transfected L cells; format: cell-based; conditions: compared to non-transfected controls
T1 construct: a process that relies on endogenous CBP and CREB; endogenous in cells; host or cells: L cells transfected with vector or pN-Cad/CTF2
T1 sequence (P45481 whole entry): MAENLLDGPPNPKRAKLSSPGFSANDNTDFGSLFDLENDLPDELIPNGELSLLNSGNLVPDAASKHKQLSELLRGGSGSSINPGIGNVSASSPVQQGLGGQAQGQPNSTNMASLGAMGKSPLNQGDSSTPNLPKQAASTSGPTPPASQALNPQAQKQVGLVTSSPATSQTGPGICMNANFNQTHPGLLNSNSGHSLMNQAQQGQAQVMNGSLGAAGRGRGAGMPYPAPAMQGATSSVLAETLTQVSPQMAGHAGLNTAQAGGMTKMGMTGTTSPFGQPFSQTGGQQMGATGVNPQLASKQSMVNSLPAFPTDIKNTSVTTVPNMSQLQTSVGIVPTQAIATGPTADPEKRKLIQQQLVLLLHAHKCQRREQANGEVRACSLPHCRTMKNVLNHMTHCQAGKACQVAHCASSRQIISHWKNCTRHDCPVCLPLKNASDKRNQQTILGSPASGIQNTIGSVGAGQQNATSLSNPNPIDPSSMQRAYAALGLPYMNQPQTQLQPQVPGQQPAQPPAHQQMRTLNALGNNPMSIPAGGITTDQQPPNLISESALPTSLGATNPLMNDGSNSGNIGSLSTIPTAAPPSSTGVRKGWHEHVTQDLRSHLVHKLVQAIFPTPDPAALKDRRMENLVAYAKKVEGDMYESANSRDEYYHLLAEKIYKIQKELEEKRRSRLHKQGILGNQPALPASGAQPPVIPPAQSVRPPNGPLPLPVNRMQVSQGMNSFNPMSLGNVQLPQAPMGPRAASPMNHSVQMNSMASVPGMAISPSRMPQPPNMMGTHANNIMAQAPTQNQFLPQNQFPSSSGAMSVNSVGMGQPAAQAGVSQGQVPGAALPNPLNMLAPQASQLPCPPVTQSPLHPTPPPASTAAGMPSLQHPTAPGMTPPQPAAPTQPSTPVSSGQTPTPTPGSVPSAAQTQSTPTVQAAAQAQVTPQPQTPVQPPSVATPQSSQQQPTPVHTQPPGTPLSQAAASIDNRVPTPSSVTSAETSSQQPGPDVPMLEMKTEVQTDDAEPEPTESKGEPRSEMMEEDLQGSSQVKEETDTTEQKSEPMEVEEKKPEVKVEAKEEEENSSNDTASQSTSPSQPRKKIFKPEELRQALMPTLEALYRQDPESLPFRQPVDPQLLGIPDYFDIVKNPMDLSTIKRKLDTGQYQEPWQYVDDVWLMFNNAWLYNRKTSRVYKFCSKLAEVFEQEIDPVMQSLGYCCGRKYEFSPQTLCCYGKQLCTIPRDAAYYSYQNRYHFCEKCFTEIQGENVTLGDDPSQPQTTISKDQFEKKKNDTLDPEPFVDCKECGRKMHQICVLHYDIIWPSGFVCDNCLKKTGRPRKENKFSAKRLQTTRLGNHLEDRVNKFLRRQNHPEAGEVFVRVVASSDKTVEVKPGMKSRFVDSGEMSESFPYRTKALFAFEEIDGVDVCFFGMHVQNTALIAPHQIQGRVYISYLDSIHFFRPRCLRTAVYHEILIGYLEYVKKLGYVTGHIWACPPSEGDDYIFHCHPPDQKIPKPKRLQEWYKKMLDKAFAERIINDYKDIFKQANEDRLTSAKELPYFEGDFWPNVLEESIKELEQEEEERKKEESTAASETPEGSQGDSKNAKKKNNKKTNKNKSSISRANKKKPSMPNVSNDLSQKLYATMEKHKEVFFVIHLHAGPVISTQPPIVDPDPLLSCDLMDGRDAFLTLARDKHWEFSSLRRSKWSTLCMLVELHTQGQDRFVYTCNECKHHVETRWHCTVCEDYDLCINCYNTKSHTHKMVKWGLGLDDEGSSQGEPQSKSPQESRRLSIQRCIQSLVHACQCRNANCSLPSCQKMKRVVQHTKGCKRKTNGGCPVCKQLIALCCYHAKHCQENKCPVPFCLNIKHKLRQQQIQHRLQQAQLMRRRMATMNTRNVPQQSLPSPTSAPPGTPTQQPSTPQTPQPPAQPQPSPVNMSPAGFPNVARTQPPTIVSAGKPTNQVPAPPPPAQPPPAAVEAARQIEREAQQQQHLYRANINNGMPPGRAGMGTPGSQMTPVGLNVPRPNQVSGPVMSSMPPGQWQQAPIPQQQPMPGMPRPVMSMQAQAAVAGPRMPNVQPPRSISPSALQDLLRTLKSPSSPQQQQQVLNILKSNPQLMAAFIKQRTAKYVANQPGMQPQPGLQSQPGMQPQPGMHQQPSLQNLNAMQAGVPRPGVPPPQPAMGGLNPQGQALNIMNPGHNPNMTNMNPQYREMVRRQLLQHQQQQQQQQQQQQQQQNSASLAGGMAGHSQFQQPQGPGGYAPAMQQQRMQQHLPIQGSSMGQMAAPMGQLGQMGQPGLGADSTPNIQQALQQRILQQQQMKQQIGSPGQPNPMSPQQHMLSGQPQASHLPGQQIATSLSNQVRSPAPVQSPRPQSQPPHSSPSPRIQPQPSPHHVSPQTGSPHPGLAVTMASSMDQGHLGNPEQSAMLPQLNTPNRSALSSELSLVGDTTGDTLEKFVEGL
Description: Immunoprecipitations (IPs), immunoblotting and immunofluorescence. IPs were performed as described by Marambaud et al. (2002) EMBO J. 21: 1948-1956 in 4° C. HEPES buffer (25 mM HEPES, pH 7.4, 150 mM NaCl, 1× Complete protease inhibitor cocktail, Roche) containing 0.5% Nonidet P40 (NP40). For western blot (WB) analysis, cells were solubilized in 4° C. RIPA buffer (50 mM Tris-HCl, pH 8, 150 mM NaCl, 0.1% SDS, 1% NP-40, 0.5% sodium deoxycholate, 1× Complete protease inhibitor cocktail) as described by Marambaud et al. (2002). Immunofluorescence was performed as described by Georgakopoulos et al. (1999) with the following modifications: to visualize nuclei, cells were treated for 5 minutes with 4′,6-diamidino-2-phenylndole (DAPI, 1:5000; Sigma). Fluorescence microscopy and digital image acquisition were carried out using an Axioskop2 microscope (Zeizz).
To determine how N-Cad/CTF2 affects CREB-mediated transcription, the following experiments were performed. L cells transfected either with vector (vector) or pN-Cad/CTF2 (N-Cad/CTF2) plasmids were fractionated into nuclear and cytosolic fractions, and probed on WBs with anti-CBP (FIG. 11A, panel a), anti-N-cadherin (FIG. 11A, panel b), anti-β-tubulin (FIG. 11A, panel c) or anti-phosphorylated CREB (P-CREB; FIG. 11A, panel d) antibodies. […] L cells transiently transfected with pN-Cad/CTF2 were analyzed by immunofluorescence staining. […]

Row | Molecule | cellular E-Cad/CTF1 (E-cadherin) | loss of cell surface staining of all epitopes (A431 cells) | cytoplasmic staining for N-Cad/CTF2 and CBP (CBP)
1 | CC(C)C[C@H](NC(=O)[C@H](Cc1ccccc1)C[C@@H](O)[C@H](Cc1ccccc1)NC(=O)OC(C)(C)C)C(=O)N[C@@H](Cc1ccccc1)C(N)=O [L-685,458] | increased cellular E-Cad/CTF1 | significantly delayed | –
2 | B1 | – | – | clear cytoplasmic staining for both N-Cad/CTF2 and CBP
